This series concerns CCRIS mutagenicity, Ames/micronucleus/aberration tests. Put plainly: CCRIS mutagenicity studies.

Molecules are shown by their SMILES. Calls of active or inactive are those of the source. No rule for the calls is given here.

Take `O=C1CCCCCCCCCCCC(=O)OCCO1`: the mutagenic call by setting is: (Test System: AMES SALMONELLA TYPHIMURIUM, Strain/Indicator: TA98, Metabolic Activation: NONE, Method: PREINCUBATION) “inactive; negative”; (Test System: AMES SALMONELLA TYPHIMURIUM, Strain/Indicator: TA98, Metabolic Activation: RAT, LIVER, S-9, SODIUM PHENOBARBITAL AND 5,6-BENZOFLAVONE, Method: PREINCUBATION) “inactive; negative”; (Test System: AMES SALMONELLA TYPHIMURIUM, Strain/Indicator: TA100, Metabolic Activation: NONE, Method: PREINCUBATION) “inactive; negative”; (Test System: AMES SALMONELLA TYPHIMURIUM, Strain/Indicator: TA100, Metabolic Activation: RAT, LIVER, S-9, SODIUM PHENOBARBITAL AND 5,6-BENZOFLAVONE, Method: PREINCUBATION) “inactive; negative”; (Test System: AMES SALMONELLA TYPHIMURIUM, Strain/Indicator: TA102, Metabolic Activation: NONE, Method: PREINCUBATION) “inactive; negative”; (Test System: AMES SALMONELLA TYPHIMURIUM, Strain/Indicator: TA102, Metabolic Activation: RAT, LIVER, S-9, SODIUM PHENOBARBITAL AND 5,6-BENZOFLAVONE, Method: PREINCUBATION) “inactive; negative”. Also, the mutagenic call is, setting by setting: (Test System: AMES SALMONELLA TYPHIMURIUM, Strain/Indicator: TA104, Metabolic Activation: NONE, Method: PREINCUBATION) “inactive; negative”; (Test System: AMES SALMONELLA TYPHIMURIUM, Strain/Indicator: TA104, Metabolic Activation: RAT, LIVER, S-9, SODIUM PHENOBARBITAL AND 5,6-BENZOFLAVONE, Method: PREINCUBATION) “inactive; negative”; (Test System: AMES SALMONELLA TYPHIMURIUM, Strain/Indicator: TA1535, Metabolic Activation: NONE, Method: PREINCUBATION) “inactive; negative”; (Test System: AMES SALMONELLA TYPHIMURIUM, Strain/Indicator: TA1535, Metabolic Activation: RAT, LIVER, S-9, SODIUM PHENOBARBITAL AND 5,6-BENZOFLAVONE, Method: PREINCUBATION) “inactive; negative”; (Test System: AMES SALMONELLA TYPHIMURIUM, Strain/Indicator: TA1537, Metabolic Activation: NONE, Method: PREINCUBATION) “inactive; negative”; (Test System: AMES SALMONELLA TYPHIMURIUM, Strain/Indicator: TA1537, Metabolic Activation: RAT, LIVER, S-9, SODIUM PHENOBARBITAL AND 5,6-BENZOFLAVONE, Method: PREINCUBATION) “inactive; negative”. In addition, the mutagenic call is “inactive; negative” (Test System: E. COLI, Strain/Indicator: WP2UVRA/PKM101, Metabolic Activation: NONE, Method: PREINCUBATION); “inactive; negative” (Test System: E. COLI, Strain/Indicator: WP2UVRA/PKM101, Metabolic Activation: RAT, LIVER, S-9, SODIUM PHENOBARBITAL AND 5,6-BENZOFLAVONE, Method: PREINCUBATION); “inactive; negative” (Test System: E. COLI, Strain/Indicator: WP2UVRA, Metabolic Activation: NONE, Method: PREINCUBATION); “inactive; negative” (Test System: E. COLI, Strain/Indicator: WP2UVRA, Metabolic Activation: RAT, LIVER, S-9, SODIUM PHENOBARBITAL AND 5,6-BENZOFLAVONE, Method: PREINCUBATION).

As for `CCSC(=O)N1CCCCCC1`, the mutagenic call is “inactive; negative” (Test System: AMES SALMONELLA TYPHIMURIUM, Strain/Indicator: TA98, Metabolic Activation: NONE); “inactive; negative” (Test System: AMES SALMONELLA TYPHIMURIUM, Strain/Indicator: TA98, Metabolic Activation: RAT, LIVER, S-9, AROCLOR 1254); “inactive; negative” (Test System: AMES SALMONELLA TYPHIMURIUM, Strain/Indicator: TA100, Metabolic Activation: NONE); “inactive; negative” (Test System: AMES SALMONELLA TYPHIMURIUM, Strain/Indicator: TA100, Metabolic Activation: RAT, LIVER, S-9, AROCLOR 1254); “inactive; negative” (Test System: AMES SALMONELLA TYPHIMURIUM, Strain/Indicator: TA102, Metabolic Activation: NONE); “inactive; negative” (Test System: AMES SALMONELLA TYPHIMURIUM, Strain/Indicator: TA102, Metabolic Activation: RAT, LIVER, S-9, AROCLOR 1254). In addition, the mutagenic call reads like this: (Test System: AMES SALMONELLA TYPHIMURIUM, Strain/Indicator: TA1535, Metabolic Activation: NONE) “inactive; negative”; (Test System: AMES SALMONELLA TYPHIMURIUM, Strain/Indicator: TA1535, Metabolic Activation: RAT, LIVER, S-9, AROCLOR 1254) “inactive; negative”; (Test System: AMES SALMONELLA TYPHIMURIUM, Strain/Indicator: TA1537, Metabolic Activation: NONE) “inactive; negative”; (Test System: AMES SALMONELLA TYPHIMURIUM, Strain/Indicator: TA1537, Metabolic Activation: RAT, LIVER, S-9, AROCLOR 1254) “inactive; negative”.

With `O=C(O)COc1ccc(C(=O)c2cccs2)c(Cl)c1Cl`, the mutagenic call runs as follows: (Test System: AMES SALMONELLA TYPHIMURIUM, Strain/Indicator: TA100(FR1), Metabolic Activation: NONE, Method: STANDARD PLATE) “inactive; negative”; (Test System: AMES SALMONELLA TYPHIMURIUM, Strain/Indicator: TA100(FR1), Metabolic Activation: RAT, LIVER, S-9, PHENOBARBITAL AND 3-METHYLCHOLANTHRENE, Method: STANDARD PLATE) “inactive; negative”; (Test System: AMES SALMONELLA TYPHIMURIUM, Strain/Indicator: TA100, Metabolic Activation: NONE, Method: STANDARD PLATE) “inactive; negative”; (Test System: AMES SALMONELLA TYPHIMURIUM, Strain/Indicator: TA100, Metabolic Activation: RAT, LIVER, S-9, PHENOBARBITAL AND 3-METHYLCHOLANTHRENE, Method: STANDARD PLATE) “inactive; negative”; (Test System: CHINESE HAMSTER V-79, Strain/Indicator: V-79/6-THIOGUANINE, Metabolic Activation: NONE) “inactive; negative”; (Test System: CHINESE HAMSTER V-79, Strain/Indicator: V-79/6-THIOGUANINE, Metabolic Activation: RAT, LIVER, HEPATOCYTES (SHERMAN OR SPRAGUE-DAWLEY RATS)) “inactive; negative”. Further, the mutagenic call was “active; positive” (Test System: CHINESE HAMSTER V-79, Strain/Indicator: V-79/OUABAIN, Metabolic Activation: NONE) and “active; positive” (Test System: CHINESE HAMSTER V-79, Strain/Indicator: V-79/OUABAIN, Metabolic Activation: RAT, LIVER, HEPATOCYTES (SHERMAN OR SPRAGUE-DAWLEY RATS)).

Source of the values: PubChem BioAssay AID1259407 (Chemical Carcinogenesis Research Information System (CCRIS), 2018).
